Source: the NIST ThermoML archive (doi:10.1016/j.jct.2012.08.010)

Experiment: xn = mol fraction of the nth substance listed
Conditions: 101 kPa, Liquid, Vibrating tube method

C=C[Si]1(C)O[Si](C)(C=C)O[Si](C)(C=C)O[Si](C)(C=C)O1 (stereo not given) [2,4,6,8-tetramethyl-2,4,6,8-tetravinylcycloterasiloxane] + Cc1ccc(C)cc1
mass density [kg/m3]
Conditions	288.15 K	298.15 K	308.15 K	318.15 K	328.15 K
x1 = 0.0501	882.57	873.71	864.79	855.81	846.77
x1 = 0.1045	898.18	889.15	879.99	870.82	861.58
x1 = 0.1528	909.95	900.78	891.46	882.13	872.74
x1 = 0.2005	919.97	910.61	901.17	891.84	882.31
x1 = 0.25	929.05	919.68	910.08	900.53	890.92
x1 = 0.3017	937.34	927.86	918.16	908.52	898.83
x1 = 0.3444	943.41	933.87	924.09	914.37	904.6
x1 = 0.3985	950.18	940.53	930.74	920.97	911.16
x1 = 0.4489	955.85	946.14	936.28	926.45	916.57
x1 = 0.4989	960.92	951.15	941.23	931.34	921.41
x1 = 0.5495	965.55	955.72	945.76	935.82	925.84
x1 = 0.5985	969.61	959.72	949.73	939.75	929.74
x1 = 0.649	973.48	963.54	953.51	943.48	933.43
x1 = 0.6941	976.62	966.59	956.55	946.5	936.42
x1 = 0.7484	980.08	970.08	959.96	949.86	939.75
x1 = 0.7992	983.04	972.97	962.87	952.74	942.62
x1 = 0.8375	985.13	975.04	964.91	954.76	944.62
x1 = 0.9462	990.42	980.26	970.11	959.92	949.73
x1 = 1	992.74	982.54	972.34	962.14	951.94
